Reference: US20100184815A1 (priority 2008, published 2010)

Experiments:
Format in all cases: cell-based
Gal-4 hPPARα = target: T1, Gal-4 hPPARα (Homo sapiens, UniProt Q07869); assay: Gal4-hPPARα transient transfection reporter assay in Cos cells; conditions: luciferase reporter, 24 hours with compound, scale 1-5, read-out: Gal-4 hPPAR α EC50 (scaled number)
T1 construct: Plasmids pGal4-hPPARα, pGal4-hPPARγ, pGal4-hPPARδ and pG5-TK-pGL3 were constructed as previously described by Staels, Bart, et al., Nature 1998 Jun; 25
T1 sequence (Q07869 200-468 limits assumed): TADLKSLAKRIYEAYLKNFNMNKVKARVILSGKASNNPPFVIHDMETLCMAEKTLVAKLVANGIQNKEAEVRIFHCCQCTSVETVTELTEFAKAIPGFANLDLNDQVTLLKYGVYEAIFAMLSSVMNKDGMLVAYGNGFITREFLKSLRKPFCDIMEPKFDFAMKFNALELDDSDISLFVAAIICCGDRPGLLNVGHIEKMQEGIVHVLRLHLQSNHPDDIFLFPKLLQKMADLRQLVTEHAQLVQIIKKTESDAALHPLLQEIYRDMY
Procedure: (§1) Construction of recombinant plasmids. Plasmids pGal4-hPPARα, pGal4-hPPARγ, pGal4-hPPARδ and pG5-TK-pGL3 were constructed as previously described by Staels, Bart, et al., Nature 1998 Jun. 25; 393 (6687): 790-793, by Staels (Institut Pasteur de Lille, FR).
(§2) Transient transfection assays. Cos cells were seeded in 60-mm dishes at a density of 5.5×10^5 cells/dish in Dulbecco's modified Eagle's medium (DMEM) supplemented with 10% fetal calf serum (FCS) and incubated at 37° C. for 24 hours before transfection. Cells were transfected in Opti-MEM (Gibco; Invitrogen, Carlsbad, Calif.) without FCS for 3 hours at 37° C., using polyethylenimine, with reporter and expression plasmids. The plasmid pBluescript (Stratagene, La Jolla, Calif.) was used as carrier DNA to set the final amount of DNA to 5.5 μg/dish. The pCMV-b-galactosidase expression plasmid was cotransfected as a control for transfection efficiency. Transfection was stopped by the addition of DMEM supplemented with 10% FCS, and cells were then incubated at 37° C. After 16 hours, cells were trypsinized and seeded in 96-well plates at the density of 2×10^4 cells/well and incubated for 6 hours in 10% FCS-containing DMEM. Cells were then incubated for 24 hours in DMEM containing 0.2% FCS and increasing concentrations of the compound tested or vehicle (DMSO). At the end of the experiment, cells were washed once with ice-cold PBS, lysed and the luciferase and b-galactosidase assays were performed in a luminometer and spectrophotomer. Transfection efficiencies were normalized with the b-galactosidase activity assay. Half-maximal effective concentration (EC50) was estimated using Prism software (GraphPad). All transfection experiments were performed at least three times.
(§3) In the following tables, proprietary compound EC50 values for hPPAR α, β, δ and γ are shown. The EC50 value is the concentration of a drug that induces a response halfway between the baseline and maximum, and is commonly used as a measure of drug potency. EC50 values are reported on a scale of 1 through 5, wherein the value scale is defined for each receptor as follows: […]

Gal-4 hPPARγ = target: T2, Gal-4 hPPARγ (Homo sapiens, UniProt P37231); assay: Gal4-hPPARγ transient transfection reporter assay in Cos cells; conditions: luciferase reporter, 24 hours with compound, scale 1-5, read-out: Gal-4 hPPAR γ EC50 (scaled number)
T2 construct: Plasmids pGal4-hPPARα, pGal4-hPPARγ, pGal4-hPPARδ and pG5-TK-pGL3 were constructed as previously described by Staels, Bart, et al., Nature 1998 Jun; 25
T2 sequence (P37231 238-505 limits assumed): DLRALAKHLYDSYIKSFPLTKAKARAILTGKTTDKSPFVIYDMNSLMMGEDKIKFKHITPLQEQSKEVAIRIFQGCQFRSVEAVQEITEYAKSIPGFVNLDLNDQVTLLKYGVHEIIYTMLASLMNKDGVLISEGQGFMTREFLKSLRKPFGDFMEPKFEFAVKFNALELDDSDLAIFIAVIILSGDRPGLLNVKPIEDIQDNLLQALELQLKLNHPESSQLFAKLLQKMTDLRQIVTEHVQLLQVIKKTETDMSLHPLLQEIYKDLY
Procedure: as §1, §2, §3

Gal-4 hPPARβ/δ = target: T3, Gal-4 hPPARβ/δ (Homo sapiens, UniProt Q03181); assay: Gal4-hPPARδ transient transfection reporter assay in Cos cells; conditions: luciferase reporter, 24 hours with compound, scale 1-5, read-out: Gal-4 hPPAR β/δ EC50 (scaled number)
T3 construct: Plasmids pGal4-hPPARα, pGal4-hPPARγ, pGal4-hPPARδ and pG5-TK-pGL3 were constructed as previously described by Staels, Bart, et al., Nature 1998 Jun; 25
T3 sequence (Q03181 171-441 limits assumed): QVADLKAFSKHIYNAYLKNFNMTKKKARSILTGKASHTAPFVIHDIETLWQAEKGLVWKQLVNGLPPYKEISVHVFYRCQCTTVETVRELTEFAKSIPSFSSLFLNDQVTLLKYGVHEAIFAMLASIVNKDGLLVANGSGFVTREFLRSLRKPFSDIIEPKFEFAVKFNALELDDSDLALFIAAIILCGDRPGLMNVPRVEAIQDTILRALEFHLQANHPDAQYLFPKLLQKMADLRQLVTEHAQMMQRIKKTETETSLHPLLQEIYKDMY
Procedure: as §1, §2, §3

EC50 (Gal-4 hPPARα) [nM] | EC50 (Gal-4 hPPARγ) [nM] | EC50 (Gal-4 hPPARβ/δ) [nM] | SMILES
51 to 200 | > 1000 | > 1000 | C[C@@H](OC(=O)c1ccc(SC(C)(C)C(=O)O)cc1)c1cn(Cc2ccc(OC(F)(F)F)cc2)nn1 [Compound 137, 4-(1-Carboxy-1-methyl-ethylsulfanyl)-benzoic acid (R)-1-[1-(4-trifluoromethoxy-benzyl)-1H-1,2,3-triazol-4-yl]-ethyl ester]
< 1 | 51 to 200 | > 1000 | CCCCCCCn1c(C(C)OC(=O)c2ccc(SC(C)(C)C(=O)O)cc2)nn(Cc2ccc(C)cc2)c1=O (stereo not drawn) [Compound 264, 4-(1-Carboxy-1-methyl-ethylsulfanyl)-benzoic acid 1-[4-heptyl-1-(4-methyl-benzyl)-5-oxo-4,5-dihydro-1H-1,2,4-triazol-3-yl]-ethyl ester]
51 to 200 | > 1000 | > 1000 | CCCCCCn1c(COC(=O)c2ccc(OC(C)(C)C(=O)O)cc2)nn(Cc2ccc(C(F)(C(F)(F)F)C(F)(F)F)cc2)c1=O [Compound 204, 2-(4-(((4-hexyl-5-oxo-1-(4-(perfluoropropan-2-yl)benzyl)-4,5-dihydro-1H-1,2,4-triazol-3-yl)methoxy)carbonyl)phenoxy)-2-methylpropanoic acid]
51 to 200 | 201 to 999 | 1 to 50 | Cc1ccc(-n2cc(COC(=O)c3ccc(OC(C)(C)C(=O)O)cc3)c(-c3ccccc3)n2)cc1 [Compound 17, 2-methyl-2-(4-(((3-phenyl-1-p-tolyl-1H-pyrazol-4-yl)methoxy)carbonyl)phenoxy)propanoic acid]
1 to 50 | > 1000 | > 1000 | C[C@@H](OC(=O)c1ccc(SC(C)(C)C(=O)O)cc1)c1cn(Cc2cc(C(F)(F)F)cc(C(F)(F)F)c2)nn1 [Compound 140, 4-(1-Carboxy-1-methyl-ethylsulfanyl)-benzoic acid (R)-1-[1-(3,5-bis-trifluoromethyl-benzyl)-1H-1,2,3-triazol-4-yl]-ethyl ester]
1 to 50 | > 1000 | > 1000 | CCCCCCn1c(COC(=O)c2ccc(SC(C)(C)C(=O)O)cc2)nn(Cc2ccc(C(OC)(C(F)(F)F)C(F)(F)F)cc2)c1=O [Compound 201, 2-(4-(((1-(4-(1,1,1,3,3,3-hexafluoro-2-methoxypropan-2-yl)benzyl)-4-hexyl-5-oxo-4,5-dihydro-1H-1,2,4-triazol-3-yl)methoxy)carbonyl)phenylthio)-2-methylpropanoic acid]
51 to 200 | > 1000 | > 1000 | COc1ccc(Cn2cc(COC(=O)c3ccc(SC(C)(C)C(=O)O)cc3)cn2)cc1 [Compound 8, 2-(4-(((1-(4-methoxybenzyl)-1H-pyrazol-4-yl)methoxy)carbonyl)phenylthio)-2-methylpropanoic acid]
51 to 200 | > 1000 | > 1000 | CC(C)(Sc1ccc(C(=O)OCCc2cn(Cc3ccc(C(C)(C)C)cc3)nn2)cc1)C(=O)O [Compound 144, 4-(1-Carboxy-1-methyl-ethylsulfanyl)-benzoic acid 2-[1-(4-tert-butyl-benzyl)-1H-1,2,3-triazol-4-yl]-ethyl ester]
1 to 50 | > 1000 | > 1000 | C[C@H](Cc1cn(Cc2ccc(C(C)(C)C)cc2)nn1)OC(=O)c1ccc(SC(C)(C)C(=O)O)cc1 [Compound 138, 4-(1-Carboxy-1-methyl-ethylsulfanyl)-benzoic acid (R)-2-[1-(4-tert-butyl-benzyl)-1H-1,2,3-triazol-4-yl]-1-methyl-ethyl ester]
51 to 200 | > 1000 | > 1000 | CCCn1c(COC(=O)c2ccc(SC(C)(C)C(=O)O)cc2)nn(Cc2cc(F)cc(F)c2)c1=O [Compound 218, 2-(4-(((1-(3,5-difluorobenzyl)-5-oxo-4-propyl-4,5-dihydro-1H-1,2,4-triazol-3-yl)methoxy)carbonyl)phenylthio)-2-methylpropanoic acid]
1 to 50 | > 1000 | > 1000 | CSc1ccc(Cn2cc(COC(=O)c3ccc(SC(C)(C)C(=O)O)cc3)cn2)cc1 [Compound 20, 2-methyl-2-(4-(((1-(4-(methylthio)benzyl)-1H-pyrazol-4-yl)methoxy)carbonyl)phenylthio)propanoic acid]
1 to 50 | > 1000 | > 1000 | C[C@@H](OC(=O)c1ccc(SC(C)(C)C(=O)O)cc1)c1cn(Cc2cccc(C(F)(F)F)c2)nn1 [Compound 139, 4-(1-Carboxy-1-methyl-ethylsulfanyl)-benzoic acid (R)-1-[1-(3-trifluoromethyl-benzyl)-1H-1,2,3-triazol-4-yl]-ethyl ester]
1 to 50 | > 1000 | > 1000 | CCCn1c(COC(=O)c2ccc(SC(C)(C)C(=O)O)cc2)nn(Cc2ccc(-c3ccccc3)cc2)c1=O [Compound 163, 2-(4-(((1-(biphenyl-4-ylmethyl)-5-oxo-4-propyl-4,5-dihydro-1H-1,2,4-triazol-3-yl)methoxy)carbonyl)phenylthio)-2-methylpropanoic acid]
201 to 999 | > 1000 | > 1000 | Cc1ccc(Cn2cc(CCOC(=O)c3ccc(SC(C)(C)C(=O)O)cc3)nn2)cc1 [Compound 145, 4-(1-Carboxy-1-methyl-ethylsulfanyl)-benzoic acid 2-[1-(4-methyl-benzyl)-1H-1,2,3-triazol-4-yl]-ethyl ester]
201 to 999 | > 1000 | > 1000 | CCCn1c(COC(=O)c2ccc(OC(C)(C)C(=O)O)c(C)c2)nn(Cc2ccc(C(C)(C)C)cc2)c1=O [Compound 266, 4-(1-Carboxy-1-methyl-ethoxy)-3-methyl-benzoic acid 1-(4-tert-butyl-benzyl)-5-oxo-4-propyl-4,5-dihydro-1H-1,2,4-triazol-3-ylmethyl ester]
51 to 200 | > 1000 | > 1000 | CCCn1c(COC(=O)c2ccc(SC(C)(C)C(=O)O)cc2)nn(Cc2ccc(SC(F)(F)F)cc2)c1=O [Compound 179, 2-methyl-2-(4-(((5-oxo-4-propyl-1-(4-(trifluoromethylthio)benzyl)-4,5-dihydro-1H-1,2,4-triazol-3-yl)methoxy)carbonyl)phenylthio)propanoic acid]
1 to 50 | > 1000 | > 1000 | CC(C)(Sc1ccc(C(=O)OCc2cnn(Cc3ccc4ccccc4c3)c2)cc1)C(=O)O [Compound 26, 2-methyl-2-(4-(((1-(naphthalen-2-ylmethyl)-1H-pyrazol-4-yl)methoxy)carbonyl)phenylthio)propanoic acid]
1 to 50 | > 1000 | > 1000 | CCCn1c(COC(=O)c2ccc(SC(C)(C)C(=O)O)cc2)nn(Cc2ccc(Br)cc2)c1=O [Compound 164, 2-(4-(((1-(4-bromobenzyl)-5-oxo-4-propyl-4,5-dihydro-1H-1,2,4-triazol-3-yl)methoxy)carbonyl)phenylthio)-2-methylpropanoic acid]

SMILES | EC50 (Gal-4 hPPARα) [nM] | EC50 (Gal-4 hPPARγ) [nM] | EC50 (Gal-4 hPPARβ/δ) [nM]
CC(C)(Oc1ccc(C(=O)OCc2cnn(Cc3ccc4c(c3)C(C)(C)CCC4(C)C)c2)cc1)C(=O)O [Compound 28] | 201 to 999 | > 1000 | > 1000
